Experimental data published in patent US7910582B2, “Cyclopropyl amines as modulators of the histamine H3 receptor” (Janssen Pharmaceutica NV, priority 2005, dated 2011).
Entries after “also recorded” stand apart in the source; their conditions may differ. Read-outs that look alike come from different tables or passages of the source.

What was measured:
Human H3 Receptor [1] = molecular target: T1, Human H3 Receptor (Homo sapiens, UniProt Q9Y5N1); assay: Cyclic AMP accumulation, SK-N-MC cells with reporter construct and human H3 receptor (pA2); assay type: cell-based; conditions: pA2, average of results
T1 construct: expressed in transfected cells
Method: Cells were grown to about 70% to 80% confluence and removed from the plate with trypsin and pelleted in a clinical centrifuge. […] One μg supercoiled H3 receptor cDNA was added to the cells and mixed gently. The voltage for the electroporation was set at 0.25 kV and the capacitance was set at 960 μF. After electroporation the cells were diluted with 10 mL of complete media and were plated onto four 10 cm dishes at the following ratios: 1:20, 1:10, 1:5, and 1:2. […] Colonies that survived selection were grown and tested. SK-N-MC cells were used because they give efficient coupling for inhibition of adenylate cyclase. The clones that gave the most robust inhibition of adenylate cyclase in response to histamine were used for further study.
Sublines of SK-N-MC cells were created that expressed a reporter construct and the human H3 receptor.

Human H3 Receptor [2] = molecular target: T1, Human H3 Receptor; assay: [3H]-N-Methylhistamine binding, membranes of H3 receptor-expressing SK-N-MC cells; conditions: 0.8 nM [3H]-N-methylhistamine, 60 min at 25° C., average of results; read-out: Ki
Method: Cells were grown to about 70% to 80% confluence and removed from the plate with trypsin and pelleted in a clinical centrifuge. The pellet was then re-suspended in 400 μL of complete media and transferred to an electroporation cuvette with a 0.4 cm gap between the electrodes (Bio-Rad #165-2088). One μg supercoiled H3 receptor cDNA was added to the cells and mixed gently. The voltage for the electroporation was set at 0.25 kV and the capacitance was set at 960 μF. After electroporation the cells were diluted with 10 mL of complete media and were plated onto four 10 cm dishes at the following ratios: 1:20, 1:10, 1:5, and 1:2. The cells were allowed to recover for 24 h before adding 600 μg G-418. Colonies that survived selection were grown and tested. SK-N-MC cells were used because they give efficient coupling for inhibition of adenylate cyclase. The clones that gave the most robust inhibition of adenylate cyclase in response to histamine were used for further study.
Cell pellets from histamine H3 receptor-expressing SK-N-MC cells were homogenized in 50 mM TrisHCl/0.5 mM EDTA. Supernatants from an 800 g spin were collected and were recentrifuged at 30,000 g for 30 min. Pellets were re-homogenized in 50 mM Tris/5 mM EDTA (pH 7.4). Membranes were incubated with 0.8 nM [^3H]-N-methylhistamine plus/minus test compounds for 60 min at 25° C. and were harvested by rapid filtration over GF/C glass fiber filters (pretreated with 0.3% polyethylenimine) followed by four washes with buffer. Filters were added to 5 mL of scintillation cocktail, and the signal was then counted on a liquid scintillation counter.

[3] = Measured pKa, log P and log D (determined by pION, Inc.); assay type: physicochemical; conditions: for pKa: read-out: pKa (meas.)
Method: Measured pKa, log P, and log D values were determined by pION, Inc. (Woburn, Mass.).

[4] = Pharmacokinetics and bioanalysis in the rat; assay type: in vivo, male Sprague Dawley Rats; conditions: for AUC(0-inf): read-out: AUCINF (h-μmol/mL)
Method: One group of six male Sprague Dawley Rats (approx. 300 g body weight; three animals per time point) was used. They were group-housed, provided food and water ad libitum, and were maintained on a 12-h light and dark cycle. Animals were acclimatized for at least 7 days after receipt from the vendor prior to investigations.
For oral dosing, test compounds were formulated at 1 mg/mL in 0.5% hydroxypropyl methyl cellulose and delivered at a dose of 10 mg/kg. Citric acid salt forms (prepared as described for Example 1B) of the test compounds were used. Animals received a bolus dose of 10 mg/kg (10 mL/kg) for each compound via a 16 gauge intragastric gavage. For intravenous dosing, test compounds were formulated at 1 mg/mL in 5% dextrose in water and dosed at 1 mg/kg (1 mL/kg) with a bolus intravenous dose via a 24-gauge Terumo® Surflo® catheter in the lateral tail vein. All dosing solutions were prepared immediately prior to injection.
Blood samples (250 μL) were taken from the lateral tail vein into heparinized Natelson blood collection tubes and expelled into 1.5 mL mcirocentrifuge tubes. The blood samples were centrifuged for 5 min at 14,000 rpm in a micro-centrifuge. Plasma was retained and kept in a −20° C. freezer until analysis by LC-MS/MS.
Data analysis was performed using WinNonlin version 3.3 or 4.0.1. A non -compartmental model (#200 for Extravascular administration and #201 for i.v.) was used to determine the pharmacokinetic parameters shown in Tables 4 and 5 (NA=not applicable or not determined).

[5] = male, Sprague Dawley, iv, i.v. 1 mg/kg, citric acid salt, plasma
[6] = male, Sprague Dawley, oral 10 mg/kg, citric acid salt, plasma
[7] = oral 10 mg/kg, citric acid salt
[8] = compared with isopropyl / cyclobutyl analogs

T1 sequence (Q9Y5N1 whole entry): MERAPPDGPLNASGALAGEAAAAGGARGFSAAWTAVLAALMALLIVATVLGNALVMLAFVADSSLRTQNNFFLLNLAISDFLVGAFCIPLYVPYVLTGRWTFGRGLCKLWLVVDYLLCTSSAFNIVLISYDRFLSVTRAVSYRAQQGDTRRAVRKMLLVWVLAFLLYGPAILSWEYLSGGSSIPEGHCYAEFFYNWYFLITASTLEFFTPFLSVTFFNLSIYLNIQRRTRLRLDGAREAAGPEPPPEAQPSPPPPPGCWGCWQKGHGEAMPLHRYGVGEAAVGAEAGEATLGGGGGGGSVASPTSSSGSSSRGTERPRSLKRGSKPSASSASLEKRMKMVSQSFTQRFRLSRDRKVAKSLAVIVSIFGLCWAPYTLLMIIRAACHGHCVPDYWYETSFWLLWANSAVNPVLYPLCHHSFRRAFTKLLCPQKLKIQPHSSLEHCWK

| SMILES | Kb (Human H3 Receptor [1]) | Ki (Human H3 Receptor [2]) | logD [3] | logP [3] | pKa [3] | pKa ([3]; second value) | CI ([4]; i.v. 1 mg/kg, citric acid salt) | Cmax [4, 5] | AUC(0-inf) [4, 5] | Cmax [4, 6] | Tmax [4, 6] | half-life [4, 6] | AUC(0-inf) [4, 6] | CI [4, 7] | Vd [4, 7] | also measured |
| --- | --- | --- | --- | --- | --- | --- | --- | --- | --- | --- | --- | --- | --- | --- | --- | --- |
| O=C(c1ccc(CN2CCC(F)CC2)cc1)N1CCN(C2CCC2)CC1 [Comparative Example 4, (4-Cyclobutyl-piperazin-1-yl)-[4-(4-fluoro-piperidin-1-ylmethyl)-phenyl]-methanone] | 0.1 nM | 0.7 nM | – | – | – | – | – | – | – | – | – | – | – | – | – | – |
| CC(C)N1CCN(C(=O)c2ccc(CN3CCOC(CO)C3)cc2)CC1 (stereo not drawn) [Comparative Example 6, [4-(2-Hydroxymethyl-morpholin-4-ylmethyl)-phenyl]-(4-isopropyl-piperazin-1-yl)-methanone] | 6.31 nM | 6 nM | – | – | – | – | – | – | – | – | – | – | – | – | – | – |
| O=C(c1ccc(CN2CCOCC2)cc1)N1CCN(C2CCC2)CC1 [Comparative Example 2, (4-Cyclobutyl-piperazin-1-yl)-(4-morpholin-4-ylmethyl-phenyl) -methanone] | 0.316 nM | 1 nM | 1.77 | 2.09 | 7.4 | 6.5 | – | – | – | – | – | – | – | – | – | – |
| CC(C)N1CCN(C(=O)c2ccc(CN3CCC(F)CC3)cc2)CC1.O=C(O)CC(O)(CC(=O)O)C(=O)O [Comparative Example 3B, [4-(4-Fluoro-piperidin-1-ylmethyl)-phenyl]-(4-isopropyl-piperazin-1-yl)-methanone citrate salt] | 0.251 nM | 1 nM | – | – | – | – | 44.2 mL/min/kg | 1490 nM | 1.16 µM·h | 160 nM | 1.33 h | 8.22 h | 1.95 µM·h | 270 mL/min/kg | 180 L/kg | Vd ([4]; i.v. 1 mg/kg, citric acid salt): 29.2 L/kg; T1/2 ([4]; i.v. 1 mg/kg, citric acid salt, plasma): 7.60 h |
| O=C(O)CC(O)(CC(=O)O)C(=O)O.O=C(c1ccc(CN2CCC(F)CC2)cc1)N1CCN(C2CC2)CC1 [Example 2B, (4-Cyclopropyl-piperazin-1-yl)-[4-(4-fluoro-piperidin-1-ylmethyl)-phenyl]-methanone citrate salt] | 1 nM | 2 nM | – | – | – | – | 41.4 mL/min/kg | 3780 nM | 1.37 µM·h | 420 nM | 1.67 h | 2.72 h | 1.91 µM·h | 431 mL/min/kg | 112 L/kg | half-life (T1/2) relative to the comparative examples [4, 8]: shorter T1/2; volume of distribution (Vd) relative to the comparative examples [4, 8]: lower Vd; half-life [4, 5]: 1.11 h; Vd ([4]; male, Sprague Dawley, plasma, iv, i.v. 1 mg/kg, citric acid salt, read-out: Vd): 3.94 L/kg |
| O=C(c1ccc(CN2CCOCC2)cc1)N1CCN(C2CC2)CC1 [Example 1, (4-Cyclopropyl-piperazin-1-yl)-(4-morpholin-4-ylmethyl-phenyl) -methanone] | 3.98 nM | 5.4 nM | 0.86 | 0.89 | 6.5 | 5.3 | – | – | – | – | – | – | – | – | – | measured pKa (basicity) relative to calculated value and to isopropyl / cyclobutyl amine analogs [3]: significantly lower; also recorded: significant decrease in basicity |
